Like-named read-outs stand apart in the source and are kept apart here.
Columns and labels:
[1] = test system: renovascular hypertensive rats; experiment: Effect on reducing blood pressure of renovascular hypertensive rats by single oral administration; format: in vivo, Wistar rats; details: for change in vivo at 0.5 mg/kg / inhibition in vivo at 0.5 mg/kg / change in vivo at 1 mg/kg / inhibition in vivo at 1 mg/kg / change in vivo at 2 mg/kg / inhibition in vivo at 2 mg/kg: Rattus norvegicus, single oral administration; for change in vivo at 0.5 mg/kg / change in vivo at 1 mg/kg / change in vivo at 2 mg/kg: RHR, read-out: Variations on heart rate; for inhibition in vivo at 0.5 mg/kg / inhibition in vivo at 1 mg/kg / inhibition in vivo at 2 mg/kg: two-kidney one-clip RHR, measured 1-10 h, read-out: Maximum blood pressure reduction; for blood pressure reduction at 24 hours after the administration / blood pressure reduction effect compared with Azilsartan medoxomil / lasting time of the blood pressure reduction effect compared with Azilsartan medoxomil: renal artery-ligated rat; for blood pressure reduction at 24 hours after the administration: dose not stated; for blood pressure reduction effect compared with Azilsartan medoxomil / lasting time of the blood pressure reduction effect compared with Azilsartan medoxomil: result in words
[2] = test system: spontaneously hypertensive rats (SHR); experiment: Effect on reducing blood pressure of spontaneously hypertensive rats (SHR) by multiple oral administrations; format: in vivo; details: for inhibition in vivo at 0.5 mg/kg / inhibition in vivo at 1 mg/kg / inhibition in vivo at 2 mg/kg: Rattus norvegicus; for inhibition in vivo at 0.5 mg/kg / inhibition in vivo at 1 mg/kg / inhibition in vivo at 2 mg/kg / blood pressure reduction effect compared with Azilsartan medoxomil: SHR; for blood pressure reduction effect compared with Azilsartan medoxomil / reduction effects on the heart rate of SHR rats: result in words; for reduction effects on the heart rate of SHR rats: during the whole administration
normal rats = experiment: Effect on blood pressure of normal rats by single oral administration; format: in vivo, Wistar rats; details: Rattus norvegicus, po, single, normal rats; for inhibition in vivo at 0.5 mg/kg / inhibition in vivo at 1 mg/kg / inhibition in vivo at 2 mg/kg: 8 h, read-out: blood pressure reduction at 8 h after the administration; for inhibition in vivo at 0.5 mg/kg / change in vivo at 0.5 mg/kg: 0.5 mg/kg p.o.; for inhibition in vivo at 1 mg/kg / change in vivo at 1 mg/kg: 1.0 mg/kg p.o.; for inhibition in vivo at 2 mg/kg / change in vivo at 2 mg/kg: 2.0 mg/kg p.o.; for change in vivo at 0.5 mg/kg / change in vivo at 1 mg/kg / change in vivo at 2 mg/kg: read-out: variations on heart rate
[3] = 0.5 mg/kg oral once per day, 1 hour after the administration, read-out: Maximum blood pressure reduction, 1st-day administration
[4] = 0.5 mg/kg oral once per day, 1 hour after the administration, read-out: Maximum blood pressure reduction, 7th-day administration
[5] = 0.5 mg/kg oral once per day, 1 hour after the administration, read-out: Maximum blood pressure reduction, 14th-day administration
[6] = 0.5 mg/kg oral, read-out: Heart Rate (effect on reducing heart rate)
[7] = 1.0 mg/kg oral once per day, 1 hour after the administration, read-out: Maximum blood pressure reduction, 1st-day administration
[8] = 1.0 mg/kg oral once per day, 1 hour after the administration, read-out: Maximum blood pressure reduction, 7th-day administration
[9] = 1.0 mg/kg oral once per day, 1 hour after the administration, read-out: Maximum blood pressure reduction, 14th-day administration
[10] = 1.0 mg/kg oral, read-out: Heart Rate (effect on reducing heart rate)
[11] = 2.0 mg/kg oral once per day, 1 hour after the administration, read-out: Maximum blood pressure reduction, 1st-day administration
[12] = 2.0 mg/kg oral once per day, 1 hour after the administration, read-out: Maximum blood pressure reduction, 7th-day administration
[13] = 2.0 mg/kg oral once per day, 1 hour after the administration, read-out: Maximum blood pressure reduction, 14th-day administration
[14] = 2.0 mg/kg oral, read-out: Heart Rate (effect on reducing heart rate)

Structure (SMILES)	change in vivo at 0.5 mg/kg [1] [%]	inhibition in vivo at 0.5 mg/kg [1] [%]	change in vivo at 1 mg/kg [1] [%]	inhibition in vivo at 1 mg/kg [1] [%]	change in vivo at 2 mg/kg [1] [%]	inhibition in vivo at 2 mg/kg [1] [%]	blood pressure reduction effect compared with Azilsartan medoxomil [1]	inhibition in vivo at 0.5 mg/kg [2, 3] [%]	inhibition in vivo at 0.5 mg/kg [2, 4] [%]	inhibition in vivo at 0.5 mg/kg [2, 5] [%]	inhibition in vivo at 1 mg/kg [2, 7] [%]	inhibition in vivo at 1 mg/kg [2, 8] [%]	inhibition in vivo at 1 mg/kg [2, 9] [%]	inhibition in vivo at 2 mg/kg [2, 11] [%]	inhibition in vivo at 0.5 mg/kg (normal rats) [%]	inhibition in vivo at 1 mg/kg (normal rats) [%]	inhibition in vivo at 2 mg/kg (normal rats) [%]	change in vivo at 0.5 mg/kg (normal rats) [%]	change in vivo at 1 mg/kg (normal rats) [%]	change in vivo at 2 mg/kg (normal rats) [%]	other results
CCOc1nc2cccc(C(=O)OCc3no[n+]([O-])c3C)c2n1Cc1ccc(-c2ccccc2-c2noc(=O)[nH]2)cc1 [QR01023]	-8 ± 5	18 ± 2.3	-16 ± 7	32 ± 8.1	-23 ± 6	42 ± 4.6	obviously superior to that of the Azilsartan medoxomil positive drug	25 ± 8.2	24 ± 7.1	25 ± 6.8	39 ± 6	38 ± 7	42 ± 5.3	45 ± 7.3	5.3 ± 1.4	3.6 ± 6.1	4.3 ± 2.1	-3 ± 2	6	-3 ± 5	blood pressure reduction at 24 hours after the administration [1]: 18%; lasting time of the blood pressure reduction effect compared with Azilsartan medoxomil [1]: close to that of Azilsartan medoxomil; inhibition in vivo at 0.5 mg/kg [2, 6]: 20 ± 3%; inhibition in vivo at 1 mg/kg [2, 10]: 14 ± 4%; inhibition in vivo at 2 mg/kg [2, 12]: 48 ± 9.5%; inhibition in vivo at 2 mg/kg [2, 13]: 40 ± 8.2%; inhibition in vivo at 2 mg/kg [2, 14]: 23 ± 5%; blood pressure reduction effect compared with Azilsartan medoxomil [2]: obviously superior to that of the Azilsartan medoxomil positive drug; reduction effects on the heart rate of SHR rats [2]: significant reduction effects on the heart rate
CCOc1nc2cccc(C(=O)OCOC(=O)OCc3no[n+]([O-])c3C)c2n1Cc1ccc(-c2ccccc2-c2noc(=O)[nH]2)cc1 [QR01020]	-15 ± 3	25 ± 4.3	-28 ± 6	34 ± 6.8	-25 ± 8	48 ± 2.6	obviously superior to that of the Azilsartan medoxomil positive drug	19 ± 6.8	18 ± 6.9	21 ± 4.6	30 ± 5.5	32 ± 8.3	35 ± 6.2	36 ± 5.3	2.8 ± 5.3	3.9 ± 4.3	5.6 ± 3.2	-1 ± 4	-7 ± 3	3	blood pressure reduction at 24 hours after the administration [1]: 15%; lasting time of the blood pressure reduction effect compared with Azilsartan medoxomil [1]: close to that of Azilsartan medoxomil; inhibition in vivo at 0.5 mg/kg [2, 6]: 16 ± 4%; inhibition in vivo at 1 mg/kg [2, 10]: 25 ± 3%; inhibition in vivo at 2 mg/kg [2, 12]: 42 ± 7.5%; inhibition in vivo at 2 mg/kg [2, 13]: 43 ± 7%; inhibition in vivo at 2 mg/kg [2, 14]: 18 ± 5%; reduction effects on the heart rate of SHR rats [2]: significant reduction effects on the heart rate
CCOc1nc2cccc(C(=O)OC(C)OC(=O)OC(C)C)c2n1Cc1ccc(-c2ccccc2-c2noc(=O)[nH]2)cc1 (centres unmarked) [QR01003]	2	15 ± 1.8	-3 ± 2	28 ± 2.9	-5 ± 2	36 ± 4.3	close to that of Azilsartan medoxomil	18 ± 4.6	21 ± 6.3	17 ± 6.8	31 ± 6.8	35 ± 7.3	36 ± 8.1	39 ± 5	5.6 ± 3.1	5.4 ± 1.9	6.4 ± 3.4	-2 ± 2	4	-3 ± 4	inhibition in vivo at 2 mg/kg [2, 12]: 41 ± 5.7%; inhibition in vivo at 2 mg/kg [2, 13]: 44 ± 6.1%
CCOc1nc2cccc(C(=O)OCc3no[n+]([O-])c3CO[N+](=O)[O-])c2n1Cc1ccc(-c2ccccc2-c2noc(=O)[nH]2)cc1 [QR01034]	-12 ± 8	23 ± 1.9	-15 ± 7	36 ± 4.8	-21 ± 7	45 ± 6	obviously superior to that of the Azilsartan medoxomil positive drug	25 ± 8.1	28 ± 7.4	26 ± 5.1	39 ± 7.5	39 ± 6.8	42 ± 5.9	44 ± 8.6	3.4 ± 2.6	5.1 ± 3.6	3.4 ± 5	-2 ± 5	5	-2 ± 5	blood pressure reduction at 24 hours after the administration [1]: 25%; lasting time of the blood pressure reduction effect compared with Azilsartan medoxomil [1]: close to that of Azilsartan medoxomil; inhibition in vivo at 0.5 mg/kg [2, 6]: 19 ± 2%; inhibition in vivo at 1 mg/kg [2, 10]: 15 ± 4%; inhibition in vivo at 2 mg/kg [2, 12]: 45 ± 7%; inhibition in vivo at 2 mg/kg [2, 13]: 46 ± 7.3%; inhibition in vivo at 2 mg/kg [2, 14]: 21 ± 3%; blood pressure reduction effect compared with Azilsartan medoxomil [2]: obviously superior to that of the Azilsartan medoxomil positive drug; reduction effects on the heart rate of SHR rats [2]: significant reduction effects on the heart rate
CCOc1nc2cccc(C(=O)OCc3nc(C)c(C)nc3C)c2n1Cc1ccc(-c2ccccc2-c2noc(=O)[nH]2)cc1 [QR01006]	-4 ± 2	14 ± 3.4	-5 ± 3	18 ± 3.6	-5 ± 3	24 ± 4.1									6.3 ± 2.8	7.2 ± 1.9	4.2 ± 2.1	-3 ± 4	2	-5 ± 6	
CCOc1nc2cccc(C(=O)OCc3no[n+]([O-])c3C(C)(C)C)c2n1Cc1ccc(-c2ccccc2-c2noc(=O)[nH]2)cc1 [QR01026]	-8 ± 6	16 ± 2.8	-10 ± 5	24 ± 6.5	-10 ± 6	31 ± 2.8									5.2 ± 3.2	4.3 ± 5.1	3.8 ± 4.5	-5 ± 8	-3 ± 7	-4 ± 7	
CCOc1nc2cccc(C(=O)OCCCCOc3no[n+]([O-])c3S(=O)(=O)c3ccccc3)c2n1Cc1ccc(-c2ccccc2-c2noc(=O)[nH]2)cc1 [QR01011]	-5 ± 3	16 ± 4.3	-8 ± 6	28 ± 1.3	-6 ± 4	29 ± 4	close to that of Azilsartan medoxomil								2.7 ± 3.6	3.8 ± 2.1	3.7 ± 5	-3 ± 5	6	-5 ± 3	
CCOc1nc2cccc(C(=O)OCCCCO[N+](=O)[O-])c2n1Cc1ccc(-c2ccccc2-c2noc(=O)[nH]2)cc1 [QR01008]	-8 ± 5	17 ± 3.1	-15 ± 3	28 ± 3.4	-18 ± 5	35 ± 3.4	close to that of Azilsartan medoxomil								4.5 ± 2.7	4.6 ± 2.5	2.1 ± 2.4	-6 ± 2	4	-2 ± 3	
CCOc1nc2cccc(C(=O)OCc3oc(=O)c(=O)oc3C)c2n1Cc1ccc(-c2ccccc2-c2noc(=O)[nH]2)cc1 [QR01014]	-2 ± 3	16 ± 3.5	-4 ± 2	21 ± 4.3	-4 ± 5	26 ± 2.1									2.9 ± 3.4	2.7 ± 3.6	4.6 ± 3.2	-4 ± 2	-3 ± 3	4	

Reference: patent US9708306B2, “Benzimidazole derivatives and preparation process and pharmaceutical uses thereof” (WUHAN LL SCIENCE AND TECHNOLOGY DEVELOPMENT CO., LTD, priority 2015, dated 2017)
